Test results taken from US20240238274A1, “INHIBITORS OF UBIQUITIN SPECIFIC PEPTIDASE 22 (USP22) AND USES THEREOF FOR TREATING DISEASE AND DISORDERS” (Northwestern University, priority 2021, published 2024).

Key:
[1] = tested on: Usp22 and Usp21 expression in iTreg cells; experiment: In vitro iTreg cell TGF-β assay, USP mRNA level; type: cell-based; details: TGF-β added, inhibitor 25 μg/mL
From the text: FIG. 8: TGF-β induces expression of Usp22 and Usp21 in Treg cells. A, Visual representation of Tumor Conditioned Media (TCM) experiments. B, iTreg USP mRNA level under TGF-β induction post-polarization. Usp22: n=18-19; Usp21: n=7-8; Usp7: 4-5. C, iTreg USP mRNA level under TGF-β with and without a TGF-β inhibitor. Usp22: n=3-11; Usp21: n=8-18; Usp7: 3-8. D, Treg FoxP3 mRNA level with TGF-β induction (n=10). B-D, All mRNA values calculated relative to WT untreated iTreg cells. E, TGF-β level in B16, LLC1 and EG7 tumor conditioned media (n=3). F-H, Correlation between USP induction and TGF-β level in the tumor conditioned media. Usp22: n=3-10; Usp21: n=3-8; Usp7: n=3-6. I, TGF-β mRNA level of control or TGF-β shRNA treated B16 cells (n=3). J, mRNA level of Usp22 in sorted itTreg cells from mice injected with shRNA treated B 16 cells (n=4). B, D, and I, Two-tailed unpaired t-test was performed to determine statistical significance. C and E Ordinary one-way Anova with multiple comparisons between groups was performed to determine statistical significance. All data are presented as mean±stdev. NS, not significant. *P<0.05, **P<0.01, ***P<0.001, ****P<0.0001.
Many types of tumors secrete large amounts of TGF-β, which dampens immune responses and promotes metastasis (21, 22). […]

[2] = tested on: USP mRNA level in nTreg and iTreg cells; experiment: In vitro inhibitor assays, USP mRNA level in Treg cells; type: cell-based; details: 24 hours
Experimental: FIG. 3: Usp22 and Usp21 are required for FOXP3 stability in nTreg cells under environmental and metabolic stress found in the TME. All mRNA values calculated relative to unchallenged WT Treg cells. A, nTreg USP mRNA level in normoxic (21% O2) verses hypoxic (1% O2) conditions after 24 hours (n=6-13). B, FOXP3 MFI change in 22KO nTreg cells relative to WT nTreg cells after 72 hours in normoxic (21% O2) verses hypoxic (1% O2) conditions (n=5). C, nTreg USP mRNA level after treatment with dMOG for 24 hours (n=6). D, USP mRNA level in nTreg cells after exposure to glucose-restricted (0.5 mM) conditions after 24 hours relative to normal media (11 mM glucose) (n=7-18). E, Relative FOXP3 MFI change in nTreg cells from control and cells cultured under low glucose conditions after 48 hours (n=3). F, nTreg USP mRNA level under amino acid starvation for 24 hours (n=5-9). […]
Along with the competition for glucose, a scarcity of amino acids within tumors may also alter immune cell function (35). […] So, we treated Treg cells with an inhibitor of mitochondrial ATP synthase, Oligomycin A, and measured USP mRNA levels.
All nTreg and iTreg cells were plated as described above DMOG (Sigma Catalog #D3695) was administered to the cells in relevant experiments at 1 mM for 24 hours. […] FOXP3 protein level was assessed via flow cytometry following 48 hours of treatment of inhibitors described above. […]

CC(C)(O)c1cc(Nc2cc(Oc3cn(C4CC4)nc3C3CCOCC3)ccn2)ccn1 [LY 3200882]
TGF-β-induced increase of Usp22 and Usp21 expression [1]: largely diminished

CC[C@H]1/C=C/C=C/C[C@@H](C)[C@H](O)[C@@](C)(O)C(=O)[C@@H](C)[C@H](O)[C@@H](C)C(=O)[C@@H](C)[C@H](O)[C@@H](C)/C=C/C(=O)O[C@@H]2[C@H](C)[C@H](CC1)O[C@]1(CC[C@H](C)[C@H](C[C@@H](C)O)O1)[C@H]2C [Oligomycin A]
USP mRNA level ([2]; nTreg cells, 1 μM): increased both Usp22 and Usp21, but not Usp7

COC(=O)CNC(=O)C(=O)OC [dMOG, dimethyloxalylglycine]
Usp22 mRNA level ([2]; nTreg and iTreg cells, 1 mM): increased Usp22 mRNA level
